Reference: US20230340440A1, “GENETIC MANIPULATION METHOD IN BACTERIA” (University of Washington, priority 2022, published 2023)
Values after ≈ are worked out from the molar mass of the structure shown. Where two headings read alike, the source gives them in different places.

Legend:
[1] = system: XylS-Pm promoters regulating dCas9 and/or MCP-SoxS; assay: inducible CRISPRa by XylS-Pm on CRISPRa machinery, J3-BBa_J23117-mRFP reporter (pPPC020); type: cell-based, P. putida; conditions: for fold-activation in the presence of inducer: J306 scRNA
Source text: FIGS. 18A-18B show inducible CRISPRa by XylS-Pm on CRISPRa machinery. Inducible dCas9/MCP-SoxS constructs were integrated into the P. putida genome with the mini-Tn7 method (FIG. 18A). XylS-Pm promoters were introduced in place of the Sp.pCas9 promoter regulating dCas9 and/or the BBa_J23107 promoter for MCP-SoxS. Strains were transformed with a vector (pPPC020) carrying either an off-target scRNA or a J306 scRNA (FIG. 18B). The fold-activation in the presence of m-toluic acid as an inducer are 9-fold, 5-fold, and 10-fold from PPC08, PPC09, and PPC10, respectively. […] If only MCP-SoxS is under control of the inducible promoter, leaky activation is detectable. In a strain with constitutively expressed CRISPRa machinery that should not be responsive to inducer, high inducer concentrations (5 mM) also led to a modest increase in mRFP expression (1.3-fold). Values represent the mean ± standard deviation calculated from n = 3 independent biological replicates.
Fluorescence measurements of reporter gene expression were carried out either by flow cytometry or plate reader. Single colonies from LB plates were inoculated in 500 µL of EZ-RDM (Teknova) supplemented with the appropriate antibiotics and grown in 96-deep-well plates at 30° C. with shaking overnight 225 rpm. For small-molecule induction, overnight cultures were diluted 100-fold into a new culture with appropriate antibiotics and inducers, then shaken overnight at 30° C., 225 rpm. For flow cytometry, overnight cultures were diluted 1:50 in Dulbecco’s phosphate-buffered saline (PBS) and analyzed on a MACSQuant VYB flow cytometer with the MACSQuantify 2.8 software (Miltenyi Biotec) using the methods and instruments settings as described (Dong et al., 2018. Synthetic CRISPR-Cas gene activators for transcriptional reprogramming in bacteria. Nat Commun 9, 2489). For plate reader measurements, 150 µL of overnight culture were transferred into a flat, clear-bottomed black 96-well plate. OD600 and fluorescence values were measured in a Biotek Synergy HTX plate reader and analyzed using the BioTek Gen5 2.07.17 software. For mRFP1 detection, the excitation wavelength was 540 nm and emission wavelength was 600 nm. […]
To tune expression levels with CRISPRa and CRISPRi, the CRISPR system components were placed under the control of a small-molecule inducible promoter. dCas9 and/or MCP-SoxS were expressed using XylS-Pm, an inducible promoter system from the P. putida mt-2 toluene degradation pathway (Wirth et al., 2019. Accelerated genome engineering of Pseudomonas putida by I-SceI-mediated recombination and CRISPR-Cas9 counterselection. Microb Biotechnol). […] In all three inducible strains assessed, tunable gene activation as a function of inducer concentration was observed (FIG. 18B). […]

XylS-Pm-dCas9 = assay: tunable CRISPRa/CRISPRi in inducible-dCas9 strain (PPC08), J3-BBa_J23110-mRFP reporter; type: cell-based, P. putida
Source text: FIGS. 5A-5B show CRISPRa with endogenous promoters and inducible CRISPRa/CRISPRi in P. putida. The putative promoter sequences between two open reading frames (ORFs) with 60 bp flanking sequences were incorporated into the mRFP reporter (FIG. 5A). scRNAs were introduced for all potentially activable target sites corresponding to the effective distances as tested in FIGS. 2B & 2C. Precise distances from the target site to the TSS are listed in Table 5. hAAVS1 was used as an off-target scRNA for all ten promoters. […] The inducible-dCas9 strain yielded 3-fold activation with CRISPRa or 7-fold repression with CRISPRi at 1 mM m-toluic acid compared to the no-inducer control. Fold-changes compared to the off-target control were 4-fold and 5-fold, respectively. […] Values represent the mean ± standard deviation calculated from n = 3 independent biological replicates.
Fluorescence measurements of reporter gene expression were carried out either by flow cytometry or plate reader. Single colonies from LB plates were inoculated in 500 µL of EZ-RDM (Teknova) supplemented with the appropriate antibiotics and grown in 96-deep-well plates at 30° C. with shaking overnight 225 rpm. For small-molecule induction, overnight cultures were diluted 100-fold into a new culture with appropriate antibiotics and inducers, then shaken overnight at 30° C., 225 rpm. For flow cytometry, overnight cultures were diluted 1:50 in Dulbecco’s phosphate-buffered saline (PBS) and analyzed on a MACSQuant VYB flow cytometer with the MACSQuantify 2.8 software (Miltenyi Biotec) using the methods and instruments settings as described (Dong et al., 2018. Synthetic CRISPR-Cas gene activators for transcriptional reprogramming in bacteria. Nat Commun 9, 2489). For plate reader measurements, 150 µL of overnight culture were transferred into a flat, clear-bottomed black 96-well plate. OD600 and fluorescence values were measured in a Biotek Synergy HTX plate reader and analyzed using the BioTek Gen5 2.07.17 software. For mRFP1 detection, the excitation wavelength was 540 nm and emission wavelength was 600 nm. For sfGFP detection, the excitation wavelength was 485 nm and the emission wavelength was 528 nm. Data were plotted using Prism (GraphPad).
A reporter with either an activating scRNA or a repressing sgRNA was delivered to the inducible dCas9 strain (PPC08) and 3-fold activation with CRISPRa or 7-fold repression with CRISPRi at 1 mM m-toluic acid (FIG. 5B) was observed. […] By targeting CRISPRi and CRISPRa to the same locus, we may be able to obtain lower basal expression and higher induced expression. […]

XylS-Pm promoter = assay: inducible XylS-Pm-mediated activation of an mRFP reporter gene; type: cell-based, P. putida KT2440; conditions: 1 mM m-toluic acid compared to the no inducer condition
Description: (§1) FIGS. 17A-17C show inducible promoters in P. putida (FIG. 17A). Inducible LacI-Ptrc-mediated activation of an mRFP reporter gene in P. putida KT2440 with 0-1 mM IPTG. A 13-fold activation at 1 mM IPTG was observed compared to the no inducer condition. Inducible XylS-Pm-mediated activation of an mRFP reporter gene in P. putida KT2440 with 0-5 mM m-toluic acid (FIG. 17B). […] The XylS-Pm promoter provides a better dynamic range compared to LacI-Ptrc promoter mainly due to its relatively low basal expression. mRFP reporter gene fluorescence distributions measured by flow cytometry (FIG. 17C). […] Values in FIG. 17A represent the mean ± standard deviation calculated from n = 6 independent biological replicates. Values in FIG. 17B represent the mean ± standard deviation calculated from n = 3 independent biological replicates. […]
(§2) Fluorescence measurements of reporter gene expression were carried out either by flow cytometry or plate reader. […] For flow cytometry, overnight cultures were diluted 1:50 in Dulbecco’s phosphate-buffered saline (PBS) and analyzed on a MACSQuant VYB flow cytometer with the MACSQuantify 2.8 software (Miltenyi Biotec) using the methods and instruments settings as described (Dong et al., 2018. Synthetic CRISPR-Cas gene activators for transcriptional reprogramming in bacteria. Nat Commun 9, 2489). […]

E. coli = assay: growth experiment with extracellular p-ACA, E. coli; type: cell-based
Source text: (§3) FIGS. 31A-31F show CRISPRa efficiency can be tuned by expression level of scRNA. The optimized expression level of scRNA from pBBR1-GmR is under J23110 promoter. Higher level (BBa_J23119) or lower level (BBa_J23106) led to decrease in CRISPRa effects (FIG. 31A). CRISPRa efficiency can be tuned by scRNA composition (FIG. 31B). Truncating the spacer sequence from 20 nucleotides to 8 nucleotides led to titratable expression level by CRISPRa. Desired product p-ACA is toxic to E. coli but not P. putida (FIG. 31C). In this kinetic growth experiment, extracellular p-ACA is supplied in the media at the indicated concentrations, and cultures are grown in a plate reader with periodic density measurements. E. coli growth is severely limited above 20 mM p-ACA (dash-dotted line). Early timepoints are sometimes obscured by p-ACA precipitate, which eventually resolubilizes. […] Error bars represent standard deviation of n=3 biological replicates. […] An example of CRISPRa with 3 orthogonal scRNAs activating 3 fluorescent reporters (FIG. 31E). Multiple scRNAs construction strategy was based on Golden-Gate Assembly (FIG. 31F).
(§4) With further chemical modification or bioconversions, pACA can be converted into p-aminostyrene (pAS) which is a precursor of derivatized polystyrene, containing a functional group for further modification or functionalization with other polymers. […] Assuming that high concentration of pACA could be deleterious to the host, a growth experiment using E. coli, the standard chassis, and P. putida, known for resistance to aromatic compounds was performed. It is obvious that E. coli cannot tolerate high concentrations of pACA while P. putida growth is less affected. Thus, the solution to microbial production of pACA might be achievable with P. putida as an alternative chassis.
As originally implemented in E. coli, the p-AF production pathway consisted of the P. fluorescens papABC operon78 under tet-inducible control, along with a feedback-resistant E. coli aroG74 and aroL in their own operon, which is also tet-inducible. […] Toxic amounts of extracellular p-ACA, the result of a spike into the media, are shown in FIG. 31B, with 50% reduction of E. coli growth occurring above 10 mM extracellular.

p-ACA solubility limit = type: physicochemical; conditions: aqueous buffer; extracellular, culture media
P. putida cultures = assay: consumption of extracellular p-ACA by growing P. putida cultures; conditions: stability of accumulation in culture supernatant
P. putida = assay: growth experiment with extracellular p-ACA, P. putida; type: cell-based
Source text: as §3, §4
In contrast to E. coli, p-ACA has little effect on P. putida growth, even up to 20 mM extracellular (close to its solubility limit). Therefore, the inventors chose to port the existing pAF pathway into P. putida to extend it to more valuable downstream aromatic products.

LacI-Ptrc promoter = assay: inducible LacI-Ptrc-mediated activation of an mRFP reporter gene; type: cell-based, P. putida KT2440; conditions: 1 mM IPTG compared to the no inducer condition
Description: as §1, §2

[2] = 1 mM m-toluic acid compared to the no-inducer control
[3] = 1 mM m-toluic acid compared to the off-target control

Cc1cccc(C(=O)O)c1 [m-toluic acid]
increase in mRFP expression ([1]; 5 mM inducer, strain with constitutively expressed CRISPRa machinery): 1.3 fold
fold-activation in the presence of inducer ([1]; strain PPC08 (inducible dCas9)): 9 fold
fold-activation in the presence of inducer ([1]; strain PPC09 (inducible MCP-SoxS)): 5 fold
fold-activation in the presence of inducer ([1]; strain PPC10 (dCas9 and MCP-SoxS inducible)): 10 fold
activation with CRISPRa (XylS-Pm-dCas9; [2]): 3 fold
repression with CRISPRi (XylS-Pm-dCas9; [2]): 7 fold
fold-change with CRISPRa (XylS-Pm-dCas9; [3]): 4 fold
fold-change with CRISPRi (XylS-Pm-dCas9; [3]): 5 fold
activation of mRFP reporter (XylS-Pm) (XylS-Pm promoter): > 300 fold

Nc1ccc(C[C@H](N)C(=O)O)cc1 [p-AF, p-aminophenylalanine]
toxic effects in E. coli host (E. coli): can safely accumulate

Nc1ccc(C=CC(=O)O)cc1 [p-ACA, p-aminocinnamic acid]
solubility (p-ACA solubility limit): ~20 mM (≈ 3260 µg/mL)
consumption of extracellular p-ACA by growing P. putida cultures (P. putida cultures): lack of consumption
IC50 (E. coli; Escherichia coli, read-out: 50% reduction of E. coli growth): > 10 mM
E. coli growth severely limited above (E. coli; kinetic growth experiment, extracellular p-ACA in the media, plate reader (FIG. 31C)): above 20 mM
toxic effects in E. coli host (E. coli; production/accumulation in E. coli): toxic effects
toxicity in P. putida strain with the putative catabolic pathway knocked out (P. putida; follow-up experiments): lack of p-ACA toxicity
P. putida growth (P. putida; kinetic growth experiment, extracellular p-ACA in the media (FIG. 31C)): relatively unaffected
effect on P. putida growth (P. putida; up to 20 mM extracellular): little effect

CC(C)S[C@@H]1O[C@H](CO)[C@H](O)[C@H](O)[C@H]1O [IPTG]
activation of mRFP reporter (LacI-Ptrc) (LacI-Ptrc promoter): 13 fold
